Data on 43 compounds can be found in US20250304537A1 (Repare Therapeutics Inc., priority 2022, published 2025).

Some results are limits rather than exact numbers.

The IC50 is the midpoint of a concentration-inhibition curve.

Chain of recombinant human Myt1 (full length PKMYT1) (Q99640 whole entry): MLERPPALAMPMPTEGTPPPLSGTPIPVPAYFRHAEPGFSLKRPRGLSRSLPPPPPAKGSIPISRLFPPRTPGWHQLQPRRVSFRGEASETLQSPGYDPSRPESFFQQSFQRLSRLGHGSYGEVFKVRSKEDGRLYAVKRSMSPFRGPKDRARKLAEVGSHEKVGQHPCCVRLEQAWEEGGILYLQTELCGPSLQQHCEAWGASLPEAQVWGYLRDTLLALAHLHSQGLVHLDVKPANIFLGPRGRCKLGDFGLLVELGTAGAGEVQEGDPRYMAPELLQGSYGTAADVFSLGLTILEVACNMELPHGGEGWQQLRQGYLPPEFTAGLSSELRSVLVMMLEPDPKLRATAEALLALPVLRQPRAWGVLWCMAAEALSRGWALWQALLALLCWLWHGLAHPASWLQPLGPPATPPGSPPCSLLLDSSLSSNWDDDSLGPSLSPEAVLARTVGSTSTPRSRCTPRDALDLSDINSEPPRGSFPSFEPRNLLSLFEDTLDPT

This experiment addresses recombinant human Myt1 (full length PKMYT1) (Homo sapiens (Human), UniProt Q99640). Nature of the experiment: Recombinant human Myt1 kinase assay (ADP-Glo). The class given is biochemical. To be noted: 10 μM ATP. The protocol: Detection of Myt1 kinase activity utilized a recombinant human Myt1 kinase assay measuring the hydrolysis of ATP using a commercially available ADP-Glo Assay (ADP-Glo™ Kinase Assay from Promega, 10 000 assays, #V9102). Briefly, 5 μL recombinant human Myt1 (full length PKMYT1 recombinant human protein expressed in insect cells from Thermo Fisher #A33387; ˜80% purity) was prepared in reaction buffer (70 mM HEPES, 3 mM MgCl2, 3 mM MnCl2, 50 μg/ml PEG 20000, 3 μM Na-orthovanadate, 1.2 mM DTT) and added to 384 well white polystyrene, flat bottom well, non-treated, microplate (Corning #3572). After this, 5 μL of compounds (diluted in reaction buffer to 0.5% DMSO) was added to the microplate and the plate was spun briefly and incubated at 22° C. for 15 minutes. Ultra-Pure Adenosine Triphosphate (ATP) solution (ADP-Glo kit from Promega) was diluted in reaction buffer and 5 μL was added to the microplate, spun down briefly and incubated for 60 minutes at 30° C. The final Myt1 enzyme concentration was 18 nM and the final ATP concentration was 10 μM. After the 60-minute incubation, 15 μL of ADP-Glo reagent was added and the plate was spun briefly and sealed and incubated in the dark for 40 minutes at 22° C. Following this, 30 μL of kinase detection reagent was added per well and the plate was spun briefly, sealed and incubated for 45-60 minutes at 22° C. in the dark. Luminescence was read using the Envision (250 ms integration). The IC50 and the % max inhibition were calculated for each inhibitor compound tested.
For orientation: In ADP-Glo the light output rises with the ADP produced.
In the case of `Cc1ccc2[nH]ncc2c1-c1cc(-c2ccnc(OCCc3ncccn3)n2)nc(C(N)=O)c1N` (atropisomer, axis not shown) [Compound 330], the half-inhibitory concentration (IC50) turned out to be 88 nM.
Then `Cc1ccc2[nH]ncc2c1-c1cc(-c2cccc(OC[C@H](N)C(C)C)n2)nc(C(N)=O)c1N` (atropisomer, axis not shown) [Compound 345], with 1020 nM.
As for `Cc1ccc2[nH]ncc2c1-c1cc(-c2ccnc(O[C@@H](C)c3ncccn3)n2)nc(C(N)=O)c1N` (atropisomer, axis not shown) [Compound 357], the concentration for half-maximal inhibition (IC50) was 5 nM.
As for `Cc1ccc2[nH]ncc2c1-c1cc(-c2ccnc(O[C@H](C)c3ncccn3)n2)nc(C(N)=O)c1N` (atropisomer, axis not shown) [Compound 358], the IC50 is 69 nM.
For the compound `Cc1ccc2[nH]ncc2c1-c1cc(-c2ccnc(N[C@@H](CO)c3ccccc3)n2)nc(C(N)=O)c1N` (atropisomer, axis not shown) [Compound 362], the IC50 was 2 nM.
For the compound `CO[C@@H](COc1cccc(-c2cc(-c3c(C)ccc4[nH]ncc34)c(N)c(C(N)=O)n2)n1)C1CC1` (atropisomer, axis not shown) [Compound 363], the IC50 is 4 nM.
On to `CO[C@H](COc1cccc(-c2cc(-c3c(C)ccc4[nH]ncc34)c(N)c(C(N)=O)n2)n1)C1CC1` (atropisomer, axis not shown) [Compound 364], for which the half-inhibitory concentration (IC50) was determined as 8 nM.
As for `Cc1ccc2[nH]ncc2c1-c1cc(-c2ccnc(N[C@H](CO)Cc3ccccc3)n2)nc(C(N)=O)c1N` (atropisomer, axis not shown) [Compound 370], the half-inhibitory concentration (IC50) was 869 nM.
`Cc1ccc2[nH]ncc2c1-c1cc(-c2ccnc(N[C@H]3c4ccccc4C[C@@H]3O)n2)nc(C(N)=O)c1N` (atropisomer, axis not shown) [Compound 372]: the IC50 is greater than 2000 nM.
For `Cc1ccc2[nH]ncc2c1-c1cc(-c2ccnc(N[C@H]3c4ccccc4C[C@H]3O)n2)nc(C(N)=O)c1N` (atropisomer, axis not shown) [Compound 376], the half-inhibitory concentration (IC50) is 15 nM.
For `Cc1ccc2[nH]ncc2c1-c1cc(-c2cccc(OCC3(N)CC3)n2)nc(C(N)=O)c1N` (atropisomer, axis not shown) [Compound 382], the IC50 is 3 nM.
Regarding `Cc1ccc2[nH]ncc2c1-c1cc(-c2ccnc(N[C@@H](CO)Cc3ccccc3)n2)nc(C(N)=O)c1N` (atropisomer, axis not shown) [Compound 383], the half-maximal inhibitory concentration (IC50) is 2 nM.
Then `Cc1ccc2[nH]ncc2c1-c1cc(-c2ccnc(N[C@@H]3c4ccccc4C[C@@H]3O)n2)nc(C(N)=O)c1N` (atropisomer, axis not shown) [Compound 384], with 4 nM; and `Cc1ccc2[nH]ncc2c1-c1cc(-c2cccc(OC[C@H]3CCCN3)n2)nc(C(N)=O)c1N` (atropisomer, axis not shown) [Compound 387], with 640 nM; and `Cc1ccc2[nH]ncc2c1-c1cc(-c2cccc(OC[C@H]3CCCO3)n2)nc(C(N)=O)c1N` (atropisomer, axis not shown) [Compound 388], with 643 nM.
Consider `Cc1ccc2[nH]ncc2c1-c1cc(-c2ccnc(N3Cc4ccccc4C[C@H]3CO)n2)nc(C(N)=O)c1N` (atropisomer, axis not shown) [Compound 392], for which the IC50 turned out to be 461 nM.
Then `Cc1ccc2[nH]ncc2c1-c1cc(-c2ccnc(NCC3(O)COC3)n2)nc(C(N)=O)c1N` (atropisomer, axis not shown) [Compound 394], with 98 nM; and `Cc1ccc(O)cc1-c1cc2cccnc2c(C(N)=O)c1N` [Compound 1, 7-amino-6-(5-hydroxy-2-methylphenyl)quinoline-8-carboxamide], with greater than 50000 nM; and `Cc1ccc(O)cc1-c1nc(-c2cccc(F)n2)nc(C(N)=O)c1N` [Compound 5], with 25 nM.
As for `Cc1ccc(O)cc1-c1nc(-c2cccc(C(N)=O)c2)nc(C(N)=O)c1N` [Compound 8], the half-maximal inhibitory concentration (IC50) amounted to 25 nM.
Turning to `Cc1cnc(-c2nc(C(N)=O)c(N)c(-c3cc(O)ccc3C)n2)s1` [Compound 9], the IC50 was found to be 44 nM.
Consider `Cc1ccc(O)cc1-c1c(N)c(C(N)=O)nc2ccccc12` [Compound 10, 3-amino-4-(5-hydroxy-2-methylphenyl)quinoline-2-carboxamide], for which the IC50 is 202 nM.
Take `Cc1cc(-c2nc(C(N)=O)c(N)c(-c3cc(O)ccc3C)n2)cc(C)n1` [Compound 11]: the IC50 stood at 54 nM.
For the compound `Cc1ccc(O)cc1-c1nc(C(N)=O)c(N)c(-c2cc(O)ccc2C)n1` [Compound 12], the IC50 came to 246 nM.
Regarding `Cc1ccc(-c2nc(C(N)=O)c(N)c(-c3cc(O)ccc3C)n2)cc1` [Compound 20], the IC50 worked out at 105 nM.
Turning to `Cc1ccc(O)cc1-c1nc(-c2cccnc2)nc(C(N)=O)c1N` [Compound 21], the IC50 came to 202 nM.
With `Cc1ccc(O)cc1-c1nc(-c2cc(F)cc(F)c2)nc(C(N)=O)c1N` [Compound 22], the IC50 came to 18 nM.
Then `Cc1ccc(O)cc1-c1nc(-c2ccc(C#N)cc2)nc(C(N)=O)c1N` [Compound 23], with 51 nM; and `Cc1ccc(O)cc1-c1nc(-c2ccncc2)nc(C(N)=O)c1N` [Compound 24], with 18 nM.
In the case of `COc1cc(-c2nc(C(N)=O)c(N)c(-c3cc(O)ccc3C)n2)ccn1` [Compound 25], the half-maximal inhibitory concentration (IC50) came to 15 nM.
Consider `Cc1ccc(O)cc1-c1nc(-c2ccc(F)c(Cl)c2)nc(C(N)=O)c1N` [Compound 28], for which the IC50 was determined as 45 nM.
With `Cc1cccc(-c2nc(C(N)=O)c(N)c(-c3cc(O)ccc3C)n2)c1` [Compound 30], the IC50 turned out to be 74 nM.
For the compound `Cc1ccccc1-c1nc(C(N)=O)c(N)c(-c2cc(O)ccc2C)n1` [Compound 31], the IC50 was 341 nM.
For the compound `Cc1ccc(O)cc1-c1nc(-c2cc(F)cc(C(F)(F)F)c2)nc(C(N)=O)c1N` [Compound 32], the IC50 was found to be 175 nM.
With `Cc1ccc(O)cc1-c1nc(-c2ccc(N)nc2)nc(C(N)=O)c1N` [Compound 33] the figure was 52 nM; with `Cc1ccc(O)cc1-c1nc(-c2cnn(C)c2)nc(C(N)=O)c1N` [Compound 34], 81 nM.
In the case of `Cc1ccc(O)cc1-c1nc(-c2ccn(C)n2)nc(C(N)=O)c1N` [Compound 35], the concentration for half-maximal inhibition (IC50) was found to be 167 nM.
With `Cc1ccc(O)cc1-c1nc(-c2ccn(C)c(=O)c2)nc(C(N)=O)c1N` [Compound 36], the IC50 was determined as 92 nM.
For the compound `Cc1ccc(O)cc1-c1nc(-c2ccc(N3CCOCC3)cc2)nc(C(N)=O)c1N` [Compound 37], the IC50 worked out at 42 nM.
`Cc1ccc(O)cc1-c1nc(C2CCC(F)(F)CC2)nc(C(N)=O)c1N` [Compound 41, 5-amino-2-(4,4-difluorocyclohexyl)-6-(5-hydroxy-2-methylphenyl)pyrimidine-4-carboxamide]: the IC50 is 827 nM.
`Cc1ccc(O)c(C)c1-c1cc(-c2cc3ccccc3n2C)nc(C(N)=O)c1N` [Compound 46]: the IC50 amounted to 62 nM.
Take `Cc1ccc(O)c(C)c1-c1cc(C(=O)O)nc(C(N)=O)c1N` [Compound 53, 5-amino-6-carbamoyl-4-(3-hydroxy-2,6-dimethylphenyl)picolinic acid]: the IC50 was 1830 nM.
Turning to `Cc1ccc(O)cc1-c1c(Cl)c(C(N)=O)nc2ccccc12` [Compound 73, 3-chloro-4-(5-hydroxy-2-methylphenyl)quinoline-2-carboxamide], the IC50 was greater than 50 nM.
